This note sets out measurements from US20230158048A1, “COMBINATIONS” (Recurium IP Holdings, LLC, priority 2020, published 2023).

Assay [1] relates to ZR-75-1 cells. Put plainly: CTG Assay (CellTiter-Glo Luminescent Cell Viability Assay), cell proliferation. Format: cell-based. The note with it: Homo sapiens, 160 nM, 72 h. The method, then: Cell proliferation was measured using the CellTiter-Glo® Luminescent Cell Viability Assay. The assay involved the addition of a single reagent (CellTiter-Glo® Reagent) directly to cells cultured in serum-supplemented medium. ZR-75-1 (ATCC® CRL-1500) cells were cultured according to ATCC recommendations and were seeded at 10,000 cells per well.
Compound 5A and Palbociclib were prepared as a DMSO stock solution (10 mM). Plates were incubated at 37° C., 5% CO2 for 72 h and then equilibrated at room temperature for approximately 30 min. An equal-volume amount of CellTiter-Glo® Reagent (100 μL) was added to each well. Plates were mixed for 2 min on an orbital shaker to induce cell lysis and then incubated at RT for 10 min to stabilize the luminescent signal. Luminescence (RLU (relative light unit)) was recorded using a SpectraMAX, M5e plate reader according to CellTiter-Glo protocol. Percent inhibition was calculated using the following formula: % inhibition=(RLU*100/(RLU of the cell background)). IC50 of each compound was calculated using GraphPad Prism by nonlinear regression analysis.
A general note: ATP-based viability assays read luminescence as a measure of living cells.

The subject of assay [2] is MCF-7 cells. Put plainly: Xenograft Tumor Model, MCF-7 (ER+ Breast cancer) mouse model. Format: in vivo. The conditions noted are these: MCF-7 xenograft mice, 50 mg/kg p.o. The method, then: Mice were inoculated with MCF-7 cells subcutaneously on the 2nd right mammary fat pad with the single cell suspension of 95% viable tumor cells (1×10^7) in 100 μL DMEM Matrigel mixture (1:1 ratio) without serum for the tumor development. The treatment was started when the mean tumor size reached approximately 226 mm^3, with individual tumor size ranging from 185-245 mm^3. Animals were randomly distributed into treatment groups of 10 animals each and dosed with vehicle and indicated compounds at indicated dosage and frequency provided in FIG. 4 and Table 3. In FIG. 4, the bottom line with star is Compound 5A (200 mg/kg p.o. qd×24)+Palbociclib (50 mg/kg p.o. pd×24). Tumor volumes were evaluated twice per week to calculate tumor volume over time, and mice were weighed twice per week as a surrogate for signs of toxicity. Tumor growth inhibition (TGI) was calculated using the following equation TGI=(1−(Td−T0)/(Cd−C0))×100%. Td and Cd are the mean tumor volumes of the treated and control animals, and TO and C0 are the mean tumor volumes of the treated and control animals at the start of the experiment. The tumor regression was defined as individual tumor volume (TV) decrease (terminal TV compared to initial TV). The percent tumor regression was calculated using the formula: (1−(Td/T0))×100%.

As for `CC(=O)c1c(C)c2cnc(Nc3ccc(N4CCNCC4)cn3)nc2n(C2CCCC2)c1=O` [Palbociclib], in assay [1], the inhibition (in general, how much of the control response was suppressed) at 0.16 µM was found to be 20%. In assay [2], the “TUMOR REGRESSION % (DAY 23)” value worked out at 0%.
